Measured values from US20070093552A1, “Early insulin secretion stimulator” (priority 2003, published 2007).

Assays:
Format in all cases: in vivo, human
test subjects = assay: Glucose tolerance test after administration of corosolic acid, banaba extract or placebo, blood glucose level assayed (Test Example 2); conditions: 10 mg oral, 75 g glucose load, p<0.05, 35 subjects
Method: The following test was conducted to confirm that corosolic acid has a hypoglycemic effect. A glucose tolerance test was performed after administration of corosolic acid, banaba extract or a placebo, in a double-blind crossover manner, and the blood glucose level (plasma glucose concentration) was assayed.
First, 35 test subjects were orally administered corosolic acid (10 mg, ≧99% purity), banaba extract (trade name: COROSOLIA M, product of Use Techno Corporation; administered at 10 mg of corosolic acid) or a placebo, and blood was sampled immediately thereafter with the blood glucose level at that time designated as the value at 0 minutes. Immediately after blood sampling, 75 g of glucose was orally administered to each test subject to start a glucose tolerance test, and blood was sampled after periods of 30 minutes, 60 minutes, 90 minutes, 120 minutes and 180 minutes for measurement of the blood glucose level.
FIG. 2 is a graph showing blood glucose levels during the glucose tolerance test. The horizontal axis represents time (min) after start of the glucose tolerance test, and the vertical axis represents plasma glucose concentration (mg/dL). In the graph, (c) is a case with administration of corosolic acid, (d) is a case with administration of banaba leaf extract and (e) is a case with administration of the placebo.

[1] = test system: borderline diabetic patients; assay: Glucose tolerance test after administration of corosolic acid or placebo, blood insulin level (IRI) assayed (Test Example 1); conditions: 10 mg oral, 75 g glucose load, p<0.05, 31 patients
Method: A glucose tolerance test was performed after administration of corosolic acid or a placebo, in a double-blind crossover manner, and the blood insulin level (IRI: immunoreactive insulin) was assayed.
First, 31 borderline diabetic patients as test subjects were orally administered corosolic acid (10 mg, ≧99% purity) or a placebo, and blood was sampled immediately thereafter with the blood insulin level at that time designated as the value at 0 minutes. Immediately after blood sampling, 75 g of glucose was orally administered to each test subject to start a glucose tolerance test, and blood was sampled after periods of 30 minutes, 60 minutes, 90 minutes, 120 minutes and 180 minutes for measurement of the blood insulin level.
FIG. 1 is a graph showing the blood insulin levels during the glucose tolerance test. The horizontal axis represents time (min) after start of the glucose tolerance test, and the vertical axis represents IRI (μU/mL). In the graph, (a) is a case with administration of corosolic acid and (b) is a case with administration of the placebo.

[2] = test system: borderline diabetic patients; assay: Changes in blood glucose and blood insulin levels after fasting, absence of glucose load (Test Example 3); conditions: fasted, 10 mg; for I: blood insulin level: unit assumed
Method: Three borderline diabetic patients (person, person and person) were instructed to fast from 8:00 pm (to ensure absence of glucose load), and were administered a placebo once or the test agent (corosolic acid) once at 9:00 am on the following day, after which the changes in blood glucose levels and blood insulin levels were measured. The test subjects were given absolutely no information regarding placebo or test agent (crossover, double-blind). The corosolic acid was administered in a single 10 mg dose, and each test was conducted twice.
FIG. 3 is a graph showing changes in blood glucose levels with administration of corosolic acid and a placebo in the absence of a glucose load, and FIG. 4 is a graph showing changes in blood insulin levels with administration of corosolic acid and a placebo in the absence of a glucose load.

[3] = 120 minutes after start of glucose tolerance test

## C[C@H]1[C@H](C)CC[C@]2(C(=O)O)CC[C@]3(C)C(=CC[C@@H]4[C@@]5(C)C[C@@H](O)[C@H](O)C(C)(C)[C@@H]5CC[C@]43C)[C@H]12 [corosolic acid]
Test subjects; 90 minutes after start of glucose tolerance test
  blood glucose level compared to placebo: significant decrease
Test subjects; [3]
  blood glucose level compared to placebo: significant decrease
[1]; 30 minutes after start of glucose tolerance test
  blood insulin level compared to placebo: significant increase
[1]; [3]
  blood insulin level compared to placebo: significant drop
[2]; test subject A, after 0 min
  G: blood glucose level: 110 mg/dL
  I: blood insulin level: 9 µU/mL
[2]; test subject A, after 30 min
  I: blood insulin level: 6.9 µU/mL
[2]; test subject A, after 60 min
  I: blood insulin level: 6.6 µU/mL
[2]; test subject A, after 90 min
  I: blood insulin level: 5.9 µU/mL
[2]; test subject A, after 120 min
  I: blood insulin level: 6.6 µU/mL
[2]; test subject A, after 180 min
  I: blood insulin level: 5.1 µU/mL
[2]; test subject B, after 0 min
  I: blood insulin level: 2.5 µU/mL
[2]; test subject B, after 30 min
  I: blood insulin level: 2.6 µU/mL
[2]; test subject B, after 60 min
  I: blood insulin level: 3 µU/mL
[2]; test subject B, after 90 min
  I: blood insulin level: 2 µU/mL
[2]; test subject B, after 120 min
  G: blood glucose level: 150 mg/dL
  I: blood insulin level: 3.4 µU/mL
[2]; test subject B, after 180 min
  I: blood insulin level: 2.4 µU/mL
[2]; test subject C, after 0 min
  G: blood glucose level: 90 mg/dL
  I: blood insulin level: 4.5 µU/mL
[2]; test subject C, after 30 min
  G: blood glucose level: 90 mg/dL
  I: blood insulin level: 4.1 µU/mL
[2]; test subject C, after 60 min
  G: blood glucose level: 88 mg/dL
  I: blood insulin level: 3.9 µU/mL
[2]; test subject C, after 90 min
  G: blood glucose level: 86 mg/dL
  I: blood insulin level: 4.9 µU/mL
[2]; test subject C, after 120 min
  G: blood glucose level: 86 mg/dL
  I: blood insulin level: 4 µU/mL
[2]; test subject C, after 180 min
  G: blood glucose level: 81 mg/dL
  I: blood insulin level: 4 µU/mL
